Test results: PubChem BioAssay (NCI)
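Step 1: Grow cells in 96-well plates. Step 2: Expose to compound for 48 hours at 5 concentrations. Step 3: Interpolate endpoints linearly; if unreached, use highest concentration. At the GI50, growth is halved. TGI denotes the concentration required for complete inhibition of growth.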

What was measured:
Assay in all cases: inhibition of tumour cell growth, NCI panel, 48 h
HOP-62 NSCLC = system: HOP-62 NSCLC
A549 NSCLC = system: A549 NSCLC
NCI-H226 lung = system: NCI-H226 lung
OVCAR-3 ovarian = system: OVCAR-3 ovarian
TK-10 renal = system: TK-10 renal
HOP-92 NSCLC = system: HOP-92 NSCLC
UACC-257 melanoma = system: UACC-257 melanoma
SK-OV-3 ovarian = system: SK-OV-3 ovarian
OVCAR-5 ovarian = system: OVCAR-5 ovarian
HCC-2998 colon = system: HCC-2998 colon

SMILES	GI50 (HOP-62 NSCLC) [µM]	TGI (HOP-62 NSCLC) [µM]	GI50 (A549 NSCLC) [µM]	TGI (A549 NSCLC) [µM]	GI50 (NCI-H226 lung) [µM]	TGI (NCI-H226 lung) [µM]	GI50 (OVCAR-3 ovarian) [µM]	TGI (OVCAR-3 ovarian) [µM]	GI50 (TK-10 renal) [µM]	TGI (TK-10 renal) [µM]	GI50 (HOP-92 NSCLC) [µM]	TGI (HOP-92 NSCLC) [µM]	GI50 (UACC-257 melanoma) [µM]	TGI (UACC-257 melanoma) [µM]	GI50 (SK-OV-3 ovarian) [µM]	TGI (SK-OV-3 ovarian) [µM]	GI50 (OVCAR-5 ovarian) [µM]	TGI (OVCAR-5 ovarian) [µM]	GI50 (HCC-2998 colon) [µM]	TGI (HCC-2998 colon) [µM]
O=c1oc2cc(OS(=O)(=O)c3ccc(F)cc3)ccc2c2c1CCCCC2	45.1	> 100	> 100	> 100	> 100	> 100	> 100	> 100	> 100	> 100	4.05	95.1	> 100	> 100	> 100	> 100	> 100	> 100	> 100	> 100
CCN(CC)CCOc1nc2ccc(OC)cc2c2c1-c1ccc(OC)cc1C2=O	1.33	6.19	0.387	1.59	0.87	3.06	0.872	2.15	1.38	2.95	0.786	5.36	1.4	3.12	2.88	14.8	1.87	7.2	1.31	6.68
COc1ccc(-c2nn3ncccc3c2-c2ccnc(Nc3ccc(Cl)c(C(F)(F)F)c3)n2)cc1	15.5	> 25	10.8	> 25	10.5	> 25	10.5	> 25	13.2	> 25	4.54	19.8	11.5	> 25	13.1	> 25	9.39	> 25	6.42	20.8
O=C(O)CSc1n[nH]c(-c2ccc(O)cc2)n1	–	> 100	–	> 100	–	> 100	–	> 100	–	> 100	–	> 100	–	> 100	–	> 100	–	> 100	–	> 100
CS(=O)(=O)CCNCc1nc(-c2ccc3ncnc(Nc4ccc(F)c(Cl)c4)c3c2)cs1	> 24.1	> 25	15.8	> 25	> 18.1	> 25	11.1	> 25	0.232	> 25	9.82	> 25	> 25	> 25	1.96	11	> 25	> 25	> 25	> 25
N=C1C(c2nc(-c3ccc(Br)cc3)cs2)=C(O)CN1Cc1cccnc1	17.1	> 100	26.6	> 100	11.2	33.3	14	42	2.23	45.3	22.2	84.1	27.8	> 100	25.3	> 100	2.66	42.8	24.3	80.4
O=C1CC(O)C=C1Nc1ccc(Cl)cc1 (stereo not given)	–	> 100	–	35.5	–	> 100	–	> 100	–	> 100	–	> 100	–	> 100	–	> 100	–	> 100	–	44.5
C=C1CC2(OC1=O)C(=O)N(CCCCCCCN1C(=O)C3(CC(=C)C(=O)O3)c3ccccc31)c1ccccc12 (stereo not given)	6.8	15.4	9.16	24.8	1	2.76	1.27	4.07	2.19	8.32	1.03	3.64	2.14	8.76	9.97	37.8	7.09	14.2	6.44	13.7
C=C1C(=O)O[C@H]2[C@H]1CC/C(COC(=O)c1cc3cc(F)ccc3[nH]1)=C\CC[C@@]1(C)O[C@@H]21	2.92	14.9	3.08	8.73	1.76	3.52	1.2	2.66	1.83	3.3	1.38	3.21	2.28	4.26	11.6	24.1	1.77	4.09	2.02	3.74
Cc1nc2c(nc1C)C(=O)c1cc(O)ccc1C2=O	–	> 100	–	> 100	–	> 100	–	> 100	–	> 100	–	> 100	–	> 78	–	> 100	–	> 100	–	> 100
O=C(Nc1ccc(N2CCNCC2)cc1)c1[nH]ncc1Nc1ncnc2sc3c(c12)CCC3	0.621	2.79	0.136	0.696	0.548	2.56	0.256	1.67	0.41	2.05	0.0302	1.91	0.478	2.43	0.257	1.56	0.33	1.92	0.62	2.19
